87 compounds from a melting point compilation (Tetko et al.; mined from patent text by program, amines drawn as free bases though some values may be those of a salt) can be followed below.

Broadly, the melting point is the temperature, or range, at which the solid turns liquid. `CCCCCCCCOc1ccc(-c2cnc(-c3ccc(O)c(F)c3F)nc2)cn1`: the melting point is 130 to 132 °C.

For `CC(=O)Nc1cc(CO)ccn1`, the melting point came to 145 °C.

On to `O=C(Nc1ccc(OCc2ccccc2)cc1)C(Br)CCBr` (racemic), for which the melting point lay within 140 to 142 °C.

With `O=C1NC(=O)C(=Cc2ccc(OCC3CN(c4ccccn4)CCO3)cc2)S1` (configuration not stated), the melting point was determined as 188 °C.

For `CC(C)(C)OC(=O)N[C@@H](CO)C(=O)N[C@@H](CCC(=O)OCc1ccccc1)C(=O)OCc1ccccc1`, the melting point lay in the range of 93 to 95 °C.

Take `CCOC(=O)c1nc(S(C)(=O)=O)n(C)c(=O)c1OCc1ccccc1`: the melting point fell in the range of 84 to 85 °C.

As to `Cc1cc(O)ccc1-c1ccc(C=NO)c(Cl)c1`, the melting point is 169 to 171 °C.

With `CCCc1nc(C=O)c(Cl)c(N)c1F`, the melting point lay within 89 to 91 °C.

Compound `COC(=O)c1cc(OCC=C(Cl)Cl)cc(Cl)c1O` came in with a melting point of 86 °C.

`O=C(NCc1ccc(Cl)cc1)c1cn(CCN2CCOCC2)c2ccc(C#CCO)cc2c1=O` showed a melting point of 215 to 218 °C.

On to `Cc1ccc(S(=O)(=O)NP(N)(N)=O)cc1`, for which the melting point fell in the range of 114 to 118 °C.

Consider `O=C1Cc2cccc(Oc3ccc4ccccc4c3)c2N1`, for which the melting point lay within 195 to 197 °C.

`COc1ccc(CCN(C)CCOc2ccc(NC(=O)c3cccc4c(=O)c5ccccc5[nH]c34)cc2)cc1` yielded a melting point of 165 °C.

In the case of `NC(=O)c1cc2cccc(NC(=O)c3cccs3)c2[nH]1`, the melting point fell in the range of 289 to 290 °C.

Turning to `COC(=O)C1=C(C(=O)OC)C2(c3ccc(Cl)cc3)C=CC1O2` (configuration not stated), the melting point was 84 °C.

As for `C=Cc1ccc2c(c1CCC(=O)OC)CCC(NS(=O)(=O)c1ccc(Cl)cc1)C2` (configuration not stated), the melting point was found to be 138 °C.

`COc1cccc(C(=O)N2C(=O)CN(c3ccccc3)C2=O)c1` registered a melting point of 161 to 162 °C.

`O=C1Cc2cc(Cl)ccc2N1O` showed a melting point of 202 to 208 °C.

For the compound `CC(=O)OCc1c(C)n(Cc2ccccc2)c2c(OCc3ccc(F)cc3)nncc12`, the melting point lay within 109 to 110 °C.

As to `CCOc1nc2nc(SC)nn2c2c1cnc1c2cnn1CC`, the melting point fell in the range of 209 to 211 °C.

For the compound `NNc1nncc(-c2cccc(Cl)c2)n1`, the melting point fell in the range of 163 to 166 °C.

In turn, `N#Cc1ccc(C(=O)n2ccnc2)cc1` came in with a melting point of 152 to 154 °C.

`O=C(C=C(c1ccccc1)c1ccc(Cl)cc1)Nc1ccc(C(=O)O)cc1`: the melting point lay in the range of 220 to 223 °C.

In the case of `O=S(=O)(C1CC1)C(F)(F)C(O)(Cn1cncn1)c1ccc(F)cc1` (single isomer, unassigned; (+)), the melting point was 144 to 145 °C.

`CCOC(=O)Cc1c(C(=O)O)c2cc(Oc3ccc(C(F)(F)F)cn3)ccc2n1-c1ccc(OC(C)C)cc1` showed a melting point of 202 °C.

In turn, `CCCCCCCCCCCCCCOc1cc(OCCCCCCc2cccc(OCc3ccccc3)c2OCc2ccccc2)cc(C(=O)O)c1` yielded a melting point of 75 to 77 °C.

`CN1c2ccc(C=O)cc2CCC1c1ccccc1` (configuration not stated) showed a melting point of 86 to 89 °C.

In turn, `CNS(=O)(=O)c1sccc1CCl` showed a melting point of 52 to 53 °C.

Regarding `O=C(NC1CCN(CCc2ccccc2)CC1)c1ccccc1`, the melting point was in the range of 164 to 167 °C.

The compound `Nc1nc(NCCc2cc(Br)cs2)nc2c1ncn2C1OC(CO)C(O)C1O` (configuration not stated) had a melting point of 136 to 144 °C.

In turn, `O=C(O)CCCCc1c[nH]c2ccc(F)cc12` showed a melting point of 86 to 92 °C.

With `Cn1c(/C=C/CO)c(-c2ccccc2)c2ccccc2c1=O`, the melting point was determined as 209 °C.

With `COC(=O)CCC(C(=O)C=Cc1ccc(OC(C)=O)c(OC(F)(F)F)c1)C(=O)C=Cc1ccc(OC(C)=O)c(OC(F)(F)F)c1` (configuration not stated), the melting point lay within 149 to 150 °C.

`CCOC(=O)c1cn(C)c2ccc(F)cc2c1=O` registered a melting point of 193 to 195 °C.

In the case of `Cc1c(Cl)cccc1S(=O)(=O)n1c(CCCC(=O)O)cc2nc(Cl)ccc21`, the melting point was in the range of 127 to 128 °C.

The compound `COc1cc2nc(N3CCN(C(=O)CC(=O)c4ccccc4)CC3)nc(N)c2cc1OC` gave a melting point of 214 to 215 °C.

`CN1CCN(C2=Nc3ccccc3N3CCCc4cc(Br)cc2c43)CC1` gave a melting point of 181 to 183 °C.

With `OCC1C2OCC(O2)C(OCc2ccccc2)C1O` (configuration not stated), the melting point lay in the range of 111 to 113 °C.

Compound `O=C(NC1CC2CC(N3CCN(c4ccccc4)CC3)CC2C1)c1ccccc1` (configuration not stated) returned a melting point of 211 to 212 °C.

The compound `Nc1nc(NCCC2CCC3(CC2)OCCO3)nc2c1ncn2C1OC(CO)C(O)C1O` (configuration not stated) gave a melting point of 133 to 137 °C.

Compound `CN1C2=C(C(=O)CC(C)(C)C2)C(c2ccc(Cl)c(Oc3ccccc3)c2)C2=C1CC(C)(C)CC2=O` yielded a melting point of 183 to 185 °C.

As for `C[C@@H](c1ccc(-c2ccc(=O)n(C)c2)cc1)N1CC[C@](CC(C)(C)O)(c2ccccc2)OC1=O`, the melting point lay in the range of 180 to 181 °C.

The compound `Cc1cccc(NC(=O)NCC(=O)N(CC(=O)Nc2cccc3cccnc23)c2ccccc2)c1` returned a melting point of 170 °C.

As to `CC(=O)Nc1ccc2c(c1)SC1(CC1)C2=O`, the melting point lay within 195 to 196 °C.

Turning to `CC(=O)N1c2cc(Cl)ccc2OP1c1ccccc1` (configuration not stated), the melting point lay in the range of 56 to 58 °C.

`CCCc1cc(-c2ccc(C3COC(c4c(F)cccc4F)=N3)cc2)ccc1O` (configuration not stated) returned a melting point of 210 to 215 °C.

`Nc1ccc(C(=O)c2ccccn2)cc1[N+](=O)[O-]` gave a melting point of 186 to 187 °C.

The compound `CCCCCCCCCCC[C@H](CC(=O)N[C@@H](CO)CCCNC(=O)OCc1ccccc1)OCc1ccccc1` registered a melting point of 118 °C.

`CCNc1ncnc2c1ncn2Cc1c(F)cccc1Cl` had a melting point of 175 to 176 °C.

Compound `COc1ccc(OC)c(C2(OC)C(=O)Nc3ccc(Cl)cc32)c1` (configuration not stated) gave a melting point of 180 °C.

`COc1cccc(COc2ccc(-c3cccc(NC(Cc4ccccc4)C(=O)O)c3)cc2)c1` (configuration not stated) registered a melting point of 159 to 162 °C.

Take `CCc1cc(C(C)=O)c(O)cc1OCCCCCCc1nnn[nH]1`: the melting point fell in the range of 126 to 127 °C.

In turn, `Cn1ccnc1Sc1ccc(Nc2c(C#N)cnc3cc(N4CCC(N5CCCC5)CC4)ccc23)cc1Cl` had a melting point of 125 to 130 °C.

`CCN(CC)CCNC(=O)c1ccc(Nc2nccc(-c3cccnc3)n2)cc1` displayed a melting point of 148 to 150 °C.

In the case of `O=C(CCCI)Nc1ccccc1`, the melting point lay in the range of 138 to 139 °C.

As to `C=CCn1c(C)nc2c1CCCC2=O`, the melting point came out at 78 °C.

`COc1c(NC(=O)c2ccc(-c3ccc(F)cc3)cc2)ccc2cc(CN3CCCC3)cnc12` registered a melting point of 142 to 144 °C.

Turning to `CCOP(=O)(/C=C/c1cn(-c2ccccc2)nc1OCc1ccc(OCc2nc(-c3ccc(C)c(C(=O)OC)c3)oc2C)c(OC)c1)OCC`, the melting point was 121 to 122 °C.

The compound `CCc1nc2c(N)nc3cccnc3c2n1CCCCCC(N)=O` gave a melting point of 220 to 221 °C.

The compound `CONC(=O)Cc1ccccc1Nc1c(Cl)cccc1Cl` yielded a melting point of 177 to 178 °C.

`COC(=O)c1cc(OCCCOc2ccc(-c3ccccc3)cc2)cc(OCCCOc2ccc(-c3ccccc3)cc2)c1` came in with a melting point of 142 to 145 °C.

On to `O=C1CN(c2ccc(C(Br)C(Br)c3ccccc3)cc2OCc2ccccc2)S(=O)(=O)N1` (configuration not stated), for which the melting point fell in the range of 173 to 175 °C.

`CCCC/C=C\c1c([C@H](O)[C@H](CCCC)NC(=O)[C@H](CC(C)C)NC(=O)OCC2CCCCC2)c1=O` had a melting point of 138 to 140 °C.

For the compound `CCCNC(=O)Nc1ccccc1Nc1ccc(C(=O)c2ccccc2)cc1`, the melting point lay within 167 to 169 °C.

Turning to `O=C(NN=Cc1ccc(Br)cc1)c1[nH]c2ccccc2c1Cc1ccccc1`, the melting point was 227 to 229 °C.

`O=C1C=C2C=CC=C2O1` gave a melting point of 81 to 83 °C.

In turn, `CCCCCCCCC#Cc1c(F)ccc(C(=O)O)c1F` came in with a melting point of 117 °C.

Regarding `COCC(C)Oc1cc(Oc2ccc(S(C)(=O)=O)cc2)cc2cc(C3=NCC(CC(N)=O)S3)[nH]c12` (configuration not stated), the melting point fell in the range of 107 to 112 °C.

In turn, `Cc1cc2cc(OCCC#N)ccc2o1` came in with a melting point of 73 to 76 °C.

With `C=CCn1nc(OCC(=O)c2cccs2)c(-c2ccc(F)cc2)c1-c1ccc(S(C)(=O)=O)cc1`, the melting point lay in the range of 146 to 148 °C.

`CC(C)(CO)Oc1ccc(COc2ccc(Cl)cc2)cc1` displayed a melting point of 67 to 70 °C.

The compound `CC(=O)Nc1ccc2c(c1)OCCN2C(C)=O` displayed a melting point of 150 to 154 °C.

Compound `CC(C)C(O)(Cc1ccccc1)Cc1ccccc1` had a melting point of 52 to 53 °C.

For the compound `O=c1[nH]c2cccnc2n1CCCN1CCC(C(O)(c2ccc(F)cc2)c2ccccn2)CC1` (configuration not stated), the melting point lay within 140 to 144 °C.

On to `CC(C)C1NCC(=O)N1CC(N)=O` (configuration not stated), for which the melting point is 64 °C.

As to `CCNC(=O)Nc1nc2nc(NCCCN3CCN(C)CC3)ncc2cc1-c1c(Cl)cccc1Cl`, the melting point lay within 82 to 90 °C.

As for `O=C(O)CCc1c(C(=O)O)[nH]c2cc(I)cc(I)c12`, the melting point is 280 to 282 °C.

As to `CCOC(=O)C1=C(NC(C)=O)Oc2cc(O)ccc2C1c1cnc2ccccc2c1` (configuration not stated), the melting point was in the range of 248 to 251 °C.

`CCOC(=O)C(=CC1(OC)C=C2OCOC2=CC1)C(=O)OCC` (configuration not stated) returned a melting point of 118 °C.

In turn, `CCCCc1nc2cccc(COC)c2n1Cc1ccc(-c2ccccc2CO)cc1` came in with a melting point of 126 to 127 °C.

For the compound `COC(=O)Cc1ccc(OCCNC(=O)C2Cc3ccccc3N2S(=O)(=O)c2ccc(-c3cc(Cl)ccc3Cl)cc2)cc1` (configuration not stated), the melting point was 61 to 65 °C.

For the compound `O=C(O)c1[nH]c2cc(Cl)cc(Cl)c2c1N(Cc1ccccc1)C(=O)c1ccccc1`, the melting point lay in the range of 266 to 267 °C.

For the compound `CC(C)Oc1ccccc1-c1cc(=O)c2cc(-c3nnn[nH]3)ccc2o1`, the melting point lay in the range of 293 to 295 °C.

In the case of `CC1(C)SC(c2cc3ccccc3o2)NC1C(=O)O` (configuration not stated), the melting point was determined as 96 °C.

The compound `COc1cccc(Oc2ccc(C(=O)N(C(C)C)C3CCCCC3)cc2)c1` showed a melting point of 101 °C.

`CCCNS(=O)(=O)c1cc2cc(P(=O)(O)O)c(=O)[nH]c2cc1Cl` showed a melting point of more than 300 °C.

Consider `O=C(CC(=O)C1CC1)c1ccncn1`, for which the melting point is 81 to 84 °C.
